Source: patent publication US20110152092A1, “Herbicidal compositions comprising flufenacet” (Bayer CropScience AG, priority 2009, published 2011)

Legend:
ALOMY = assay: Greenhouse trial, PE application on sensitive and resistant biotypes (test method 8); format: in vivo, Alopecurus myosuroides; details: g of AS/ha: (A) 90, (B) 1200, (C) 90, mixture 90 + 1200 + 90, iodosulfuron 10; for activity ALOMY resistant (visual, scale 0-100%): resistant biotype; for activity ALOMY sensitive (visual, scale 0-100%): sensitive biotype
Protocol: (§1) In the standard design of the test, seeds of various broad-leaved weed and weed grass biotypes (origins) were sown in a 8-13 cm diameter pot filled with natural soil of a standard field soil (loamy silt; non-sterile) and covered with a covering soil layer of about 1 cm. The pots were then cultivated in a greenhouse (12-16 h of light, temperature day 20-22° C., night 15-18° C.) until the time of application. The pots were treated on a laboratory track sprayer with spray liquors comprising the compositions according to the invention, mixtures of the prior art or components used individually. Application of the active compounds or active compound combinations formulated as WG, WP, EC or otherwise was carried out at the appropriate growth stages of the plants. The application rate for the spray application was 100-600 l of water/ha. After the treatment, the plants were returned to the greenhouses.
(§2) About 3 weeks after the application, the soil action or/and foliar action was assessed visually according to a scale of 0-100% in comparison to an untreated comparative group: 0%=no noticeable effect compared to the untreated comparative group; 100%=full effect compared to the untreated comparative group.
(§3) (notes: the term “seeds” also includes vegetative propagation forms such as, for example, rhizome pieces; abbreviations used: h light=hours of illumination, g of AS/ha=gram of active substance per hectare, l/ha=liter per hectare, S=sensitive, R=resistant) • 1. Pre-emergence action against weeds: seeds of various broad-leaved weed and weed grass biotypes (origins) were sown in a 8-13 cm diameter pot filled with natural soil of a standard field soil (loamy silt; non-sterile) and covered with a covering soil layer of about 1 cm. The pots were then cultivated in a greenhouse (12-16 h of light, temperature day 20-22° C., night 15-18° C.) until the time of application. The pots were treated at the BBCH stage 00-10 of the seeds/plants on a laboratory track sprayer with spray liquors comprising the compositions according to the invention, mixtures or components used individually, as WG, WP, EC or other formulations. The application rate for the spray application was 100-600 l of water/ha. After the treatment, the plants were returned to the greenhouses and, when required, treated with fertilizer and watered. • 2. Post-emergence action against weeds: seeds of various broad-leaved weed and weed grass biotypes (origins) were sown in a 8-13 cm diameter pot filled with natural soil of a standard field soil (loamy silt; non-sterile) and covered with a covering soil layer of about 1 cm. The pots were then cultivated in a greenhouse (12-16 h of light, temperature day 20-22° C., night 15-18° C.) until the time of application. The pots were treated at various BBCH stages between 11-25 of the seeds/plants, i.e. generally between two to three weeks after the start of the cultivation, on a laboratory track sprayer with spray liquors comprising the compositions according to the invention, mixtures or components used individually, as WG, WP, EC or other formulations. The application rate for the spray application was 100-600 l of water/ha. After the treatment, the plants were returned to the greenhouses and, when required, treated with fertilizer and watered. • 3. Selective pre-emergence action: seeds of various crop species (origins) were sown in a 8-13 cm diameter pot filled with natural soil of a standard field soil (loamy silt; non-sterile) and covered with a covering soil layer of about 1 cm. The pots were then cultivated in a greenhouse (12-16 h of light, temperature day 20-22° C., night 15-18° C.) until the time of application. The pots were treated at the BBCH stage 00-10 of the seeds/plants on a laboratory track sprayer with spray liquors comprising the compositions according to the invention, mixtures or components used individually, as WG, WP, EC or other formulations. The application rate for the spray application was 100-600 l of water/ha. […]

HORVS [1] = assay: Greenhouse trial, activity with different soil types; format: in vivo, Hordeum vulgare, summer barley; details: g of AS/ha: (A) 120, (B) 1200, (C) 90, mixture 120 + 1200 + 90
Protocol: as §1, §2
(notes: the term “seeds” also includes vegetative propagation forms such as, for example, rhizome pieces; abbreviations used: h light=hours of illumination, g of AS/ha=gram of active substance per hectare, l/ha=liter per hectare, S=sensitive, R=resistant) • 1. Pre-emergence action against weeds: seeds of various broad-leaved weed and weed grass biotypes (origins) were sown in a 8-13 cm diameter pot filled with natural soil of a standard field soil (loamy silt; non-sterile) and covered with a covering soil layer of about 1 cm. The pots were then cultivated in a greenhouse (12-16 h of light, temperature day 20-22° C., night 15-18° C.) until the time of application. The pots were treated at the BBCH stage 00-10 of the seeds/plants on a laboratory track sprayer with spray liquors comprising the compositions according to the invention, mixtures or components used individually, as WG, WP, EC or other formulations. The application rate for the spray application was 100-600 l of water/ha. After the treatment, the plants were returned to the greenhouses and, when required, treated with fertilizer and watered. • 2. Post-emergence action against weeds: seeds of various broad-leaved weed and weed grass biotypes (origins) were sown in a 8-13 cm diameter pot filled with natural soil of a standard field soil (loamy silt; non-sterile) and covered with a covering soil layer of about 1 cm. The pots were then cultivated in a greenhouse (12-16 h of light, temperature day 20-22° C., night 15-18° C.) until the time of application. The pots were treated at various BBCH stages between 11-25 of the seeds/plants, i.e. generally between two to three weeks after the start of the cultivation, on a laboratory track sprayer with spray liquors comprising the compositions according to the invention, mixtures or components used individually, as WG, WP, EC or other formulations. The application rate for the spray application was 100-600 l of water/ha. After the treatment, the plants were returned to the greenhouses and, when required, treated with fertilizer and watered. • 3. […]

HORVS [2] = assay: Greenhouse trial, PO application, selective post-emergence action on crop (test method 4); format: in vivo, Hordeum vulgare, summer barley; details: g of AS/ha: (A) 120, (B) 1200, (C) 120, mixture 120 + 1200 + 120
Protocol: as §1
as §2, with “group. […]” for “group.”

TRZAS = assay: Greenhouse trial, PE application with different irrigation variations (test method 6); format: in vivo, Triticum aestivum, summer wheat; details: g of AS/ha: (A) 120, (B) 1200, (C) 90, mixture 120 + 1200 + 90
Protocol: as §1, §2
(§4) (notes: the term “seeds” also includes vegetative propagation forms such as, for example, rhizome pieces; abbreviations used: h light=hours of illumination, g of AS/ha=gram of active substance per hectare, l/ha=liter per hectare, S=sensitive, R=resistant) • 1. Pre-emergence action against weeds: seeds of various broad-leaved weed and weed grass biotypes (origins) were sown in a 8-13 cm diameter pot filled with natural soil of a standard field soil (loamy silt; non-sterile) and covered with a covering soil layer of about 1 cm. The pots were then cultivated in a greenhouse (12-16 h of light, temperature day 20-22° C., night 15-18° C.) until the time of application. The pots were treated at the BBCH stage 00-10 of the seeds/plants on a laboratory track sprayer with spray liquors comprising the compositions according to the invention, mixtures or components used individually, as WG, WP, EC or other formulations. The application rate for the spray application was 100-600 l of water/ha. After the treatment, the plants were returned to the greenhouses and, when required, treated with fertilizer and watered. • 2. Post-emergence action against weeds: seeds of various broad-leaved weed and weed grass biotypes (origins) were sown in a 8-13 cm diameter pot filled with natural soil of a standard field soil (loamy silt; non-sterile) and covered with a covering soil layer of about 1 cm. The pots were then cultivated in a greenhouse (12-16 h of light, temperature day 20-22° C., night 15-18° C.) until the time of application. […]

AVEFA = assay: Greenhouse trial, pre-sowing application 7 days prior to sowing (test method 5); format: in vivo, Avena fatua; details: g of AS/ha: (A) 90, (B) 1200, (C) 90, mixture 90 + 1200
Protocol: as §1
as §2, with “group. […]” for “group.”

STEME = assay: Greenhouse trial, activity with different soil types; format: in vivo, Stellaria media; details: IU/EC73 soil versus IU soil; g of AS/ha: (A) 120, (B) 1200, (C) 90, mixture 120 + 1200 + 90
Protocol: as §1, §2, §3

HORVS [3] = assay: Greenhouse trial, pre-sowing application 7 days prior to sowing (test method 5); format: in vivo, Hordeum vulgare, summer barley; details: g of AS/ha: (A) 90, (B) 1200, (C) 90, mixture 90 + 1200
Protocol: as §1
as §2, with “group. […]” for “group.”

TRZAW = assay: Greenhouse trial, PE application at different sowing depths (test method 9); format: in vivo, Triticum aestivum, winter wheat; details: g of AS/ha: (A) 120, (B) 1200, (C) 90, mixture 90 + 1200 + 90
Protocol: as §1, §2, §4

HORVS [4] = assay: Greenhouse trial, PE application, selective pre-emergence action on crop (test method 3); format: in vivo, Hordeum vulgare, summer barley; details: g of AS/ha: (A) 90, (B) 1200, (C) 90, mixture 90 + 1200
Protocol: as §1
as §2, with “group. […]” for “group.”

SMILES | activity ALOMY resistant (visual, scale 0-100%) (ALOMY) | activity ALOMY sensitive (visual, scale 0-100%) (ALOMY) | activity on crop plant HORVS IU soil (visual, scale 0-100%) (HORVS [1]; IU soil) | activity on crop plant HORVS IU/EC73 soil (visual, scale 0-100%) (HORVS [1]; IU/EC73 soil) | activity on crop plant HORVS (visual, scale 0-100%) (HORVS [2]) | activity on crop plant TRZAS (visual, scale 0-100%) (TRZAS; irrigation from above) | activity on crop plant TRZAS (visual, scale 0-100%) (TRZAS; irrigation from below) | activity AVEFA (visual, scale 0-100%) (AVEFA) | Difference of the soil types, STEME (STEME) | activity on crop plant HORVS (visual, scale 0-100%) (HORVS [3]) | activity on crop plant TRZAW 5 mm (visual, scale 0-100%) (TRZAW; sowing depth 5 mm) | activity on crop plant TRZAW 20 mm (visual, scale 0-100%) (TRZAW; sowing depth 20 mm) | activity on crop plant HORVS (visual, scale 0-100%) (HORVS [4])
COc1nc(C)nc(NC(=O)NS(=O)(=O)c2cc(I)ccc2C(=O)O)n1 [C)^1 iodosulfuron, iodosulfuron] | 50% | 98% |  |  |  |  |  |  |  |  |  |  | 
O=C(Nc1ccc(F)cc1F)c1cccnc1Oc1cccc(C(F)(F)F)c1 [(C) diflufenican, N-(2,4-difluorophenyl)-2-[3-(trifluoromethyl)phenoxy]-3-pyridinecarboxamide] | 30% | 30% | 0% | 0% | 5% | 10% | 0% | 0% | −57% | 30% | 20% | 20% | 5%
